In US20250263799A1, “METHODS OF TREATING CANCER USING REPLICATION STRESS MODULATORS” (The Institute of Cancer Research: Royal Cancer Hospital, priority 2022, published 2025):

Tests used:
[1] = system: SUM159 cells engineered with dox inducible expression of HORMAD1; assay: Colony formation (surviving fraction) with ART558 in SUM159 cells with dox inducible expression of HORMAD1; type: cell-based, human
Method: (§1) RPE1 (FIGS. 16-17, A) or SUM159 (FIGS. 16-17, B) cells engineered with dox inducible expression of HORMAD1 were seeded at colony forming density in the presence or absence of dox and treated with the indicated doses of ART558. Colonies were counted and surviving fractions for each condition were calculated.

[2] = system: RPE1 cells engineered with dox inducible expression of HORMAD1; assay: Colony formation (surviving fraction) with ART558 in RPE1 cells with dox inducible expression of HORMAD1; type: cell-based, human
Method: as §1

[3] = system: HORMAD1 negative RPE-1 cells engineered to have doxycycline inducible expression of HORMAD1; assay: Novobiocin sensitivity, 10 days, cell viability by cell titre glow; type: cell-based, human
Method: HORMAD1 negative RPE-1 cells engineered to have doxycycline inducible expression of HORMAD1 were then assessed for their sensitivity to the POLQ inhibitor Novobiocin. Cells were treated with the indicated doses of Novobiocin for 10 days and cell viability assessed by cell titre glow.

[4] = system: SUM149 cells with dox-inducible expression of HORMAD1; assay: CHK1 inhibitor sensitivity, colony forming density, Cell Titer Glow, surviving fraction; type: cell-based, human; settings: FIGS. 18A, B and D
[5] = system: Breast cancer cell lines characterized as HORMAD1 negative and positive; settings: data from depmap.org, FIG. 18C; cited from earlier work
[6] = system: SUM159 cells with dox-inducible expression of HORMAD1; assay: LY2606368 sensitivity in SUM159 cells with dox-inducible HORMAD1 (FIG. 18D); type: cell-based, human; settings: +DOX vs -DOX

Cc1cccc(N(C)C(=O)[C@@H]2[C@H](O)CCN2c2nc(C)cc(C(F)(F)F)c2C#N)c1 [ART558]
sensitivity to inhibitor, HORMAD1 expressing vs uninduced controls ([1]; SUM159, +DOX vs uninduced): significantly increased sensitivity
cell viability (surviving fraction of colonies) ([1]; SUM159 cells expressing HORMAD1 (+DOX), 10 and 20 μM ART558): significant reduction in cell viability
sensitivity to inhibitor, +DOX vs -DOX ([2]; RPE1, dox-induced expression of HORMAD1, FIG. 16A): increases sensitivity
cell viability (surviving fraction of colonies) ([2]; RPE1 cells expressing HORMAD1 (+DOX), 5, 10, and 20 μM ART558): significant reduction in cell viability
cell viability (surviving fraction of colonies) ([2]; RPE1 cells in the absence of the inducer (-DOX), below 20 μM ART558): no reduction in cell viability

CO[C@@H]1[C@@H](OC(N)=O)[C@@H](O)[C@H](Oc2ccc3c(O)c(NC(=O)c4ccc(O)c(CC=C(C)C)c4)c(=O)oc3c2C)OC1(C)C [Novobiocin]
sensitivity to inhibitor, HORMAD1 expressing vs uninduced controls ([3]; +DOX vs uninduced, difference dose-dependent): significantly increased sensitivity
colony survival ([3]; Novobiocin at concentrations above 50 μM, 10 days): significant and dose-dependent reduction in colony survival

Cn1cc(-c2[nH]c3cc(NC(=O)[C@H](N)C4CCCCC4)cc4c3c2C=NNC4=O)cn1 [PF47736]
sensitivity to CHK1 inhibitor, HORMAD1 expressing vs uninduced controls [4]: significantly increased sensitivity

COc1cccc(OCCCN)c1-c1cc(Nc2cnc(C#N)cn2)n[nH]1 [LY2606368]
mean area under the curve (AUC), HORMAD1 positive vs HORMAD1 negative group [5]: lower mean AUC
sensitivity to CHK1 inhibitor upon induction of HORMAD1 expression [6]: increased sensitivity

C[C@H](CN(C)C)Oc1nc(Nc2cc3cccc(Cl)c3cn2)cnc1C#N [SAR020106]
sensitivity to CHK1 inhibitor, HORMAD1 expressing vs uninduced controls [4]: significantly increased sensitivity
